In test [1] the test system is human adult dermal fibroblasts. As to the kind of experiment: Three-dimensional transmigration model (collagen gel into fibrin gel). The class given is cell-based. The conditions noted are these: for inhibition of transmigration by peptide added to the fibrin gel: transmigration stimulated by PR or PDGF-BB. The procedure:
(§1) Primary cultures of human adult dermal fibroblasts were cultured in Dulbecco's modified Eagle's medium (DMEM, Life Technologies) supplemented with 100 U/ml penicillin and 100 μg/ml streptomycin, 42 mmol/l sodium bicarbonate and 10% fetal bovine serum (FBS, Atlanta Biologicals, Norcross, Ga.) at 37° C. and 5% CO2/95% air in a humidified atmosphere. The cells were used between passages 4 and 12.
(§2) Fibroblast cultures at 80% confluence were harvested by treatment with 0.05% trypsin/0.02% EDTA (ethylenediaminetetraacetic acid). Trypsin was inactivated by addition of soy bean trypsin inhibitor in PBS containing 0.2% BSA. The cells were washed twice with DMEM+10% FBS and resuspended at a concentration of 1×10^6 cells/ml. The fibroblasts were mixed with DMEM (5×), 10% FBS and neutralized collagen (Vitrogen 100, Celtrix Labs., Santa Clara, Calif.). In some experiments, FBS was replaced by 30 ng/ml PDGF-BB and 2% BSA. 0.6 ml aliquots of the cell mixture were added to the wells of a 24-well tissue culture plate, precoated with 2% BSA, and the collagen was allowed to polymerize at 37° C. The final concentration of collagen was 1.8 mg/ml and each gel contained 6×10^4 cells. After two hours incubation, the gels were gently detached from the plastic surface to allow contraction, 0.5 ml DMEM+10% FBS was added, and the gels were incubated overnight at 37° C. in 5% CO2.
Fibrinogen was mixed with DMEM (5×) and 0.5 U/ml thrombin (New York Blood Center, New York, N.Y.) so that the final concentration of fibrinogen was 300 μg/ml. Aliquots of 450 μl were added to the wells of a 24-well plate, and after a 2 hour incubation at 37° C. in 5% CO2, the polymerized gels were dried overnight at room temperature under sterile conditions.
Dried fibrin fibril-coated dishes were washed once with PBS and contracted collagen gels were placed on the surface. Fibrinogen, at a final concentration of 300 μg/ml, was mixed with DMEM (5×) and 1.0 U/ml thrombin. When needed, other supplements, such as growth factors, were added to the mixture. The collagen gels were surrounded with the fibrinogen solution so that the fibrin gel was level with the collagen gel (FIG. 1)
The number of migrated cells was evaluated under a Nikon inverted phase microscope by counting identifiable cell nuclei located outside of the contracted collagen gel, either on the fibrin fibril substrate (two-dimensional model) or within the fibrin gel (three-dimensional model). Each condition was assayed in triplicate and experiments were repeated at least three times.

Test [2] concerns human adult dermal fibroblasts. As to the kind of experiment: Two-dimensional outmigration model (collagen gel onto dried fibrin fibrils). The class given is cell-based. The note with it: collagen gel surrounded with liquid medium instead of fibrin gel. The protocol: as §1
as §2, with “The final concentration of collagen was 1.8 mg/ml and each gel contained 6×10^4 cells. After two hours incubation, the gels were gently detached from the plastic surface to allow contraction, 0.5 ml DMEM+10% FBS was added, and the gels were incubated overnight at 37° C. in 5% CO2.” left out
The number of migrated cells was evaluated under a Nikon inverted phase microscope by counting identifiable cell nuclei located outside of the contracted collagen gel, either on the fibrin fibril substrate (two-dimensional model) or within the fibrin gel (three-dimensional model). […]

For GRGDSP [synthetic RGD peptide], in test [1], the “inhibition of transmigration by peptide added to the fibrin gel” value is listed as “inhibited”.

`NCCCCCC(=O)O` [ε-ACA, ε-Amino-n-Caproic acid]: in test [1] (in words), the “inhibition of transmigration induced by PDGF-BB (protease inhibitors)” value is “inhibited”. Besides, the “reduction of invasion of the fibrin gel” value in test [1] (transmigration induced by PDGF-BB, 500 μg/ml ε-ACA) is recorded as “about 80%”. Further, the “inhibition of outmigration onto dried fibrin fibrils induced by PDGF-BB” value in test [2] is listed as “not inhibited”. In the case of GRGESP [control-peptide], in test [1], the “inhibition of transmigration by peptide added to the fibrin gel” value is given as “not”.

B1: PDGF-BB: Recombinant platelet-derived growth factor from ZymoGenetics (protein, UniProt P01127 82-190, looked up)
Platelet-derived growth …: SLGSLTIAEPAMIAECKTRTEVFEISRRLIDRTNANFLVWPPCVEVQRCSGCCNNRNVQCRPTQVQLRPVQVRKIEIVRKKPIFKKATVTLEDHLACKCETVAAARPVT
B1: the “induction of transmigration of fibroblasts from the collagen gel into the fibrin gel” value in test [1] (counted after one day) is “could be induced”.
